Data reported in ChEMBL document CHEMBL1201862, “PubChem BioAssay data set” (2004).
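Following 48 hours of exposure in 96-well plates, responses at five concentrations were used to interpolate endpoints linearly. The concentration for 50% growth inhibition is given as GI50.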 The source made the active and inactive calls. Rule as the data show it: active = GI50 up to about 1.1 µM and inactive = higher.

Columns and labels:
Assay in all cases: DTP human tumour cell line panel, 48 h
DU-145 = test system: DU-145
Hs-578T = test system: Hs-578T
MDA-MB-231 = test system: MDA-MB-231
DMS-114 = test system: DMS-114
DMS-273 = test system: DMS-273
HOP-18 = test system: HOP-18
XF498 = test system: XF498
LXFL 529 = test system: LXFL 529
RXF 631 = test system: RXF 631

| Structure (SMILES) | GI50 (DU-145) | GI50 (Hs-578T) | GI50 (MDA-MB-231) | GI50 (DMS-114) | GI50 (DMS-273) | GI50 (HOP-18) | GI50 (XF498) | GI50 (LXFL 529) | GI50 (RXF 631) |
| --- | --- | --- | --- | --- | --- | --- | --- | --- | --- |
| C=C1C(=O)O[C@@H]2/C=C(\C)CC/C=C(\C)CC[C@@]12O | 1.97 µM (inactive) | 8.79 µM (inactive) | 8.65 µM (inactive) |  |  |  |  |  |  |
| CC[C@]12C=CCN3CC[C@@]4(c5ccc(OC)cc5N(C)[C@H]4[C@@](O)(C(=O)OC)[C@@H]1OC(C)=O)[C@@H]32 |  |  |  | 140 µM (inactive) | > 140 µM (inactive) | > 200 µM (inactive) | > 172 µM (inactive) |  |  |
| COc1ccc(-n2sc3ncc(-c4ccccc4)cc3c2=O)cc1 | 61.7 µM (inactive) |  |  |  |  |  |  |  |  |
| COc1cc2c(cc1O)NC(=O)[C@@H]1C[C@@H](O)CN1C2=O | > 100 µM (inactive) | 43.8 µM (inactive) | > 100 µM (inactive) |  |  |  |  |  |  |
| CC(C)(C)[Si](C)(C)OCCCC#CCO |  |  |  | > 100 µM (inactive) | > 100 µM (inactive) | < 0.01 µM (active) | > 100 µM (inactive) | > 100 µM (inactive) | > 100 µM (inactive) |
| CCNC(=O)C(C)C1CCC2(C)C=CC(=O)C(C)=C2C1O (stereo not given) |  |  |  | > 100 µM (inactive) | > 77.4 µM (inactive) | > 100 µM (inactive) | > 100 µM (inactive) |  |  |
| C[N+](C)(CCO)CCN1c2ccccc2Sc2ccccc21 | > 10 µM (inactive) | > 10 µM (inactive) | > 10 µM (inactive) |  |  |  |  |  |  |
| CC(=O)NC(CCCN(Cc1ccccc1)C(=O)N(C)N=O)C(=O)NCc1ccccc1 (stereo not given) |  |  |  | > 100 µM (inactive) | > 100 µM (inactive) |  | > 100 µM (inactive) | > 100 µM (inactive) | > 100 µM (inactive) |
| [N-]=[N+]=CC(=O)CCC(N)C(=O)O (stereo not given) | 1.75 µM (inactive) | 62.2 µM (inactive) | 8.63 µM (inactive) | 1.87 µM (inactive) | 1.09 µM (active) | 43.3 µM (inactive) | 22 µM (inactive) |  |  |
| Cc1cc(C)nc(NS(=O)(=O)c2ccc(NNc3c4ccccc4nc4c(C(=O)Nc5ccc(S(N)(=O)=O)cc5)cccc34)cc2)n1 | 42.6 µM (inactive) | 64.1 µM (inactive) | 13.3 µM (inactive) |  |  |  |  |  |  |
| O=C1OC(C2Cc3ccc4c(c3C2=O)CCC4)c2ccccc21 (stereo not given) | 91.8 µM (inactive) | 36.1 µM (inactive) | > 100 µM (inactive) |  |  |  |  |  |  |
| CC1=CC(O)C(O)C2(C)C1CC1OC(=O)C(O)C3C(C)C(O)C4(O)OCC13C42 (stereo not given) |  |  |  | 35.4 µM (inactive) | 153 µM (inactive) | 155 µM (inactive) | 53.1 µM (inactive) |  |  |
| Cc1cn(C2CC(O)C(Cn3cc(Cn4nc(Br)c(=O)[nH]c4=O)nn3)O2)c(=O)[nH]c1=O (stereo not given) | > 100 µM (inactive) | > 100 µM (inactive) | > 100 µM (inactive) |  |  |  |  |  |  |
| COc1ccc(C[C@H](N)C(=O)N2C[C@@H](CO)C[C@@H](n3cnc4c(N(C)C)ncnc43)C2)cc1 |  |  |  | > 100 µM (inactive) | > 100 µM (inactive) | > 100 µM (inactive) |  | > 100 µM (inactive) |  |
| COc1cc(C=O)cc(O)c1O |  |  |  | > 100 µM (inactive) | > 100 µM (inactive) |  |  | > 100 µM (inactive) |  |
| CCCCCCCCCCCCCCCCNc1nc(=O)n(C2CC(O)C(CO)O2)cc1F (stereo not given) | 10 µM (inactive) | 17.4 µM (inactive) | 21.7 µM (inactive) |  |  |  |  |  |  |
| CC(C)[C@](O)(C(=O)OCC1CC[N+]2([O-])CC[C@@H](O)C12)[C@H](C)O (stereo not given in full) |  |  |  | > 375 µM (inactive) | > 375 µM (inactive) | 105 µM (inactive) | > 375 µM (inactive) |  |  |

| Structure (SMILES) | GI50 (DU-145) | GI50 (Hs-578T) | GI50 (MDA-MB-231) | GI50 (DMS-114) | GI50 (DMS-273) | GI50 (HOP-18) | GI50 (XF498) | GI50 (LXFL 529) | GI50 (RXF 631) |
| --- | --- | --- | --- | --- | --- | --- | --- | --- | --- |
| COC1CCC(CO)OO1 (stereo not given) |  |  |  | 15.3 µM (inactive) |  |  |  | 8.71 µM (inactive) |  |
| CN(C)C(=O)/N=C1\SC(=N\c2ccccc2)/C(=N/c2ccccc2)N1c1ccc([N+](=O)[O-])cc1 | > 100 µM (inactive) | 51.6 µM (inactive) | > 100 µM (inactive) |  |  |  |  |  |  |
| COc1cccc2c1[C@H]1CO[C@H]3C4C[C@H](C(=O)O)C([C@@H](C2)N13)N4C (stereo not given in full) | 0.0423 µM (active) | 0.0769 µM (active) | 0.205 µM (active) | 2.22 µM (inactive) | 3.6 µM (inactive) | 6.12 µM (inactive) | 2.08 µM (inactive) | 2.27 µM (inactive) | > 10 µM (inactive) |
| CCOC(=O)C(NS(=O)(=O)c1ccccc1)(C(F)(F)F)P(=O)(OCC(C)C)OCC(C)C (stereo not given) | > 100 µM (inactive) | > 100 µM (inactive) | > 100 µM (inactive) |  |  |  |  |  |  |
| Cc1ccc(C=C(C(=O)O)C(=O)O)o1 | > 100 µM (inactive) | > 100 µM (inactive) | > 100 µM (inactive) |  |  |  |  |  |  |
| Nc1nc(=O)[nH]cc1F [FLUCYTOSINE] | > 100 µM (inactive) | > 100 µM (inactive) |  |  |  |  |  |  |  |
| Cn1c(=O)oc2cc(C(O)CN3CCN(Cc4ccc5c(c4)OCO5)CC3)ccc21 (stereo not given) | > 100 µM (inactive) |  | > 100 µM (inactive) |  |  |  |  |  |  |
| Cc1ccc([N+](=O)[O-])cc1S(=O)(=O)Nc1ccc(C2=NN(C(=O)c3ccccc3)C(c3ccccc3)C2)cc1 (stereo not given) | 34 µM (inactive) | 22.1 µM (inactive) | 15.5 µM (inactive) |  |  |  |  |  |  |
| COc1ccc2c(c1)c1c(n2CCN2CCCCC2)-c2cccc(OC)c2CC1 | 32 µM (inactive) | 19.5 µM (inactive) | 15.6 µM (inactive) |  |  |  |  |  |  |
| CC(=O)NC(CCCCNC(=O)OC(C)(C)C)C(=O)O (stereo not given) | > 100 µM (inactive) |  | > 100 µM (inactive) |  |  |  |  |  |  |
| O=C1OC2CC=CC1C2 (stereo not given) |  |  |  | > 100 µM (inactive) | > 100 µM (inactive) | > 100 µM (inactive) | > 100 µM (inactive) |  |  |
| C1CNCCNCCNCCN1 |  |  |  | > 100 µM (inactive) | 53.8 µM (inactive) | > 100 µM (inactive) | 0.14 µM (active) | > 100 µM (inactive) |  |
| Nc1ncnc2c1nnn2C1OC(CO)C(O)C1O (stereo not given) |  |  |  | 3.64 µM (inactive) | 2.62 µM (inactive) | 2.69 µM (inactive) | 6.98 µM (inactive) |  |  |
| CN(C)CCOC1(Cc2ccc(Cl)cc2Cl)CCC(C(C)(C)C)CC1 (stereo not given) |  | 2.4 µM (inactive) | 1.77 µM (inactive) |  |  |  |  |  |  |
| COc1cc2c(oc(=O)c3cc4cc([Si](C)(C)C)oc4c(OC)c32)c2cccc(O)c12 |  |  |  | > 100 µM (inactive) | > 100 µM (inactive) | > 100 µM (inactive) | > 100 µM (inactive) | > 100 µM (inactive) |  |
| O=C(O)c1cccc(OCCO)c1 | > 100 µM (inactive) | > 100 µM (inactive) | > 100 µM (inactive) |  |  |  |  |  |  |
| CC(=O)Nc1ccc2oc(=O)c3ccccc3c2c1 | > 100 µM (inactive) | > 100 µM (inactive) |  |  |  |  |  |  |  |
